Source: patent EP1382597A2, “Steroid receptor modulator compounds and methods” (LIGAND PHARMACEUTICALS, INC., priority 1994, dated 1996)

What was measured:
AR [1] = biological target: T1, AR (Homo sapiens, UniProt P10275); assay: Co-transfection assay, AR agonist activity; type: cell-based
T1 construct: expressed in transfected cells; host or cells: CV-1 cells, transient transfection

AR [2] = biological target: T1, AR; assay: Co-transfection assay, AR antagonist activity; type: cell-based
AR [3] = biological target: T2, AR (Rattus norvegicus, UniProt P15207); assay: Immature castrated male rat model (antiandrogen activity); type: in vivo, rats (Sprague-Dawley); settings: for %SV growth / %VP growth: 0 mg TP = 100; for SV (wet wt): seminal vesicles
T2 construct: from tissue; host or cells: live Sprague-Dawley rats; ventral prostate and seminal vesicles weighed
T2 sequence (P15207 1-902): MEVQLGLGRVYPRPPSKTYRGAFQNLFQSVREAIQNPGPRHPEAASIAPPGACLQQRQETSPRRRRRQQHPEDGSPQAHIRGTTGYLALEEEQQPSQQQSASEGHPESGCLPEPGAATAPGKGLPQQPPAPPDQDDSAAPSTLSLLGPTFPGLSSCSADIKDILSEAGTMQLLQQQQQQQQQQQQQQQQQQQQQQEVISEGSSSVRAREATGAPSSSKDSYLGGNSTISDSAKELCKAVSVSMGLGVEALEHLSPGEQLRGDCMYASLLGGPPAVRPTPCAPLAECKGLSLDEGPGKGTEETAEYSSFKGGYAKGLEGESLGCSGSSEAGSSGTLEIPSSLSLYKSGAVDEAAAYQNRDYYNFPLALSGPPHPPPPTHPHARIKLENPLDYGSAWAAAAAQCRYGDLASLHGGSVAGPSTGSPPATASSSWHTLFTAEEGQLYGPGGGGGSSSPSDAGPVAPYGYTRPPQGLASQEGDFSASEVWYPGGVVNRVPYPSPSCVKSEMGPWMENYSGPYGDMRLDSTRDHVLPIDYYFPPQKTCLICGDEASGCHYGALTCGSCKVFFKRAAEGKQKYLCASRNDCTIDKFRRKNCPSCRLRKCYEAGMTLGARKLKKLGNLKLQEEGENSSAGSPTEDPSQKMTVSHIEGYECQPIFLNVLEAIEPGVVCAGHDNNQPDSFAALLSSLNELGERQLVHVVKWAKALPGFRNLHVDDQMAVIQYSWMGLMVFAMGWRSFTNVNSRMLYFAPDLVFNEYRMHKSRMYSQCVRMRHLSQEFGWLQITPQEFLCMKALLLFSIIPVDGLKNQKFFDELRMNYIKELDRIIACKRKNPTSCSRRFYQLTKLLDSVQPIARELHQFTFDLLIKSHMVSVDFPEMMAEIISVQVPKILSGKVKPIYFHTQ
Text: Since the male sex organs are the tissues most responsive to modulation of androgen activity, this model is used to determine the androgen-dependent growth of the sex accessory organs in immature castrated rats.
At the end of the 3-day treatment, the animals were sacrificed, and the ventral prostates (VP) and seminal vesicles (SV) were collected and weighed. To compare data from different experiments, the sexual organ weights were first standardized as mg per 100 g of body weight, and the increase in organ weight induced by TP was considered as the maximum increase (100%). Super-anova (one factor) was used for statistical analysis.

ER = biological target: T3, ER (Homo sapiens, UniProt P03372); assay: Co-transfection assay, ER antagonist activity; type: cell-based; settings: for ER Antagonist CV-1 Cells Efficacy (%): percent maximal inhibition, estradiol at its EC50
T3 construct: expressed in transfected cells; host or cells: CV-1 cells, transient transfection, with MTV-ERE5-LUC reporter

human PR-B [4] = biological target: T4, human PR-B (Homo sapiens, UniProt P06401); assay: Co-transfection assay, PR agonist activity; type: cell-based;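 note: CV-1 cells (African green monkey kidney) co-transfected with receptor plasmid and hormone-responsive firefly luciferase reporter, agonism read as compound-dependent rise in luciferase signal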
T4 construct: expressed in transfected cells; host or cells: CV-1 cells (African green monkey kidney fibroblasts), transient transfection
T4 sequence (P06401 1-933): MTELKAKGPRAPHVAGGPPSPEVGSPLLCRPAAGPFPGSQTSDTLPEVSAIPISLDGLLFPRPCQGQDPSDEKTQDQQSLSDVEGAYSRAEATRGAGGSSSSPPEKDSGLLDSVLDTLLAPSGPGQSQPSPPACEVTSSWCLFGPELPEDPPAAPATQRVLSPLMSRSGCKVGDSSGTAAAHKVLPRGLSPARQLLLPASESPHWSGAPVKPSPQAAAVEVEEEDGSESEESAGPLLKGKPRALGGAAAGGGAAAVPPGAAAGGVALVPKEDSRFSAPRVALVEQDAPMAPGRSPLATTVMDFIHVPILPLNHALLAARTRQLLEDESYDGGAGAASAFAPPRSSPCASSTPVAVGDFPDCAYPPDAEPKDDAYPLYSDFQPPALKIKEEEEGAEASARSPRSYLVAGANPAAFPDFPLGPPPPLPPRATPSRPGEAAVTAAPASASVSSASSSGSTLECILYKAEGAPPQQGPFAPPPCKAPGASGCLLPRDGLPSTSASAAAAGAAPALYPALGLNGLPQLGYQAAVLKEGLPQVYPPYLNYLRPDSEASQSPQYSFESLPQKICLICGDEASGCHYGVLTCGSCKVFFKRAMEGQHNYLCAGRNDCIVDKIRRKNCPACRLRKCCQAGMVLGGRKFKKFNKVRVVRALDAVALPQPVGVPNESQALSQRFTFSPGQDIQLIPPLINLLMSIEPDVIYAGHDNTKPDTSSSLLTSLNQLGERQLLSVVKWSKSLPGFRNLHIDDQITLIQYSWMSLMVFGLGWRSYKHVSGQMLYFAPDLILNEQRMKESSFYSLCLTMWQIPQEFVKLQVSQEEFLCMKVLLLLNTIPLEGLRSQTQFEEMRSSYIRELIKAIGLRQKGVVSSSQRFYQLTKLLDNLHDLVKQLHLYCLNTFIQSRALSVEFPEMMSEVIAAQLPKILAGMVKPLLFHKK

human PR-B [5] = biological target: T4, human PR-B; assay: Co-transfection assay, PR antagonist activity; type: cell-based;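 note: monkey kidney fibroblasts co-transfected with receptor expression plasmid and hormone-responsive luciferase reporter, antagonism read as reduced luciferase signal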
[6] = CV-1 cells; relative to reference agonist DHT
[7] = CV-1 cells; percent maximal inhibition, DHT at its EC50
[8] = CV-1, read-out: AR Agonist CV-1 Cells Efficacy (%)
[9] = CV-1, read-out: AR Antagonist CV-1 Cells Efficacy (%)
[10] = 0.01 mg TP once daily for 3 days
[11] = 0.03 mg TP once daily for 3 days
[12] = 0.1 mg TP once daily for 3 days
[13] = 0.3 mg TP once daily for 3 days

T3 sequence (P03372 whole entry): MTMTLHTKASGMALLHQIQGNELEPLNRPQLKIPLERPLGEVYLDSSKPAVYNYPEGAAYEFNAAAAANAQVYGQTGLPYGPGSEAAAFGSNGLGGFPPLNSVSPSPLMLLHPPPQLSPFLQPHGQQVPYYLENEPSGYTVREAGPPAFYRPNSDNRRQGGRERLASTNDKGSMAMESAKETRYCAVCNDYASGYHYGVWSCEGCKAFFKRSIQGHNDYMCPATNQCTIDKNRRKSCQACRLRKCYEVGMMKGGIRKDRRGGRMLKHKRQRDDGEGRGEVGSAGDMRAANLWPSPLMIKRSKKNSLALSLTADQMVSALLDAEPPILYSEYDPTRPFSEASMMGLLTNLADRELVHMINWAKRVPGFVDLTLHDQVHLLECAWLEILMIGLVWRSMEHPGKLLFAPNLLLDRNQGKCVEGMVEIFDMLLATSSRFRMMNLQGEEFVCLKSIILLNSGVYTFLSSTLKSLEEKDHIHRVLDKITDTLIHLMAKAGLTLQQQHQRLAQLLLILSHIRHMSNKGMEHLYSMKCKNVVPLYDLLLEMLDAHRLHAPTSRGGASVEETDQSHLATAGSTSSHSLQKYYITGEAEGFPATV
T1 sequence (P10275 whole entry): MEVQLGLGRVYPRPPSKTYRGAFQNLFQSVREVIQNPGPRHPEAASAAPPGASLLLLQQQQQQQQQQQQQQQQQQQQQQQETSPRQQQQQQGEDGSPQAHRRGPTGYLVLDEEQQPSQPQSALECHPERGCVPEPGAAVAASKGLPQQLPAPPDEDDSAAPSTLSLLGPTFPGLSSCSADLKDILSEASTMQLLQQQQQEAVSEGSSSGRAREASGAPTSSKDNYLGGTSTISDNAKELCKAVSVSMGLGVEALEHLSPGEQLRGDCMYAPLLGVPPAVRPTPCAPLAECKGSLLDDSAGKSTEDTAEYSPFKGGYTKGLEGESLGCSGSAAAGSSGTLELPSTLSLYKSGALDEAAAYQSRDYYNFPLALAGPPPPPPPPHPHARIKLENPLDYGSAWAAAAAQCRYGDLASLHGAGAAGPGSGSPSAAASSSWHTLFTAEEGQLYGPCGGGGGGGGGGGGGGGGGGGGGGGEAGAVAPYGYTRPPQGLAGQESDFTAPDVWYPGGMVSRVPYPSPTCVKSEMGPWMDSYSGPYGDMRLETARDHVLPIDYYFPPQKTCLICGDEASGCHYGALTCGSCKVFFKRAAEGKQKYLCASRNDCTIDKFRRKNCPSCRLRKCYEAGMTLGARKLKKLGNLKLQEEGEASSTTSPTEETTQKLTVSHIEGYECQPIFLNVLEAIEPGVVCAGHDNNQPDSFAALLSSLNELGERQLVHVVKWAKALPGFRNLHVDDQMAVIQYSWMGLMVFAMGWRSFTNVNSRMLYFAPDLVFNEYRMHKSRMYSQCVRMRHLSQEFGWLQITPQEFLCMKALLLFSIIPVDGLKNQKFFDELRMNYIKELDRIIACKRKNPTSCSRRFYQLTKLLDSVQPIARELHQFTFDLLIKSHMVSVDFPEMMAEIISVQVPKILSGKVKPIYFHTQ

CC1=CC(C)(C)Nc2cc3[nH]c(=O)cc(C(F)(F)F)c3cc21 [Compound 247, 1,2-Dihydro-2,2,4-trimethyl-6-trifluoromethyl-8-pyridono[5,6-g]quinoline]
AR Agonist CV-1 Cells Efficacy (%) (AR [1]; [6]): 23% | AR Antagonist CV-1 Cells Efficacy (%) (AR [2]; [7]): 69%

CC1(C)CNc2cc3[nH]c(=O)cc(C(F)(F)F)c3cc2C1 [Compound 437, 1,2,3,4-Tetrahydro-3,3-dimethyl-6-trifluoromethyl-8-pyridono[5,6-g]quinoline]
Emax (AR [1]; CV-1; read-out: AR Agonist CV-1 Cells Efficacy (%)): < 20% | Emax (AR [2]; CV-1; read-out: AR Antagonist CV-1 Cells Efficacy (%)): 72%

CCC1CCNc2cc3oc(=O)cc(C(F)(F)F)c3cc21 (racemic) [Compound 414, (R/S)-4-Ethyl-1,2,3,4-tetrahydro-6-trifluoromethyl-8-pyranono[5,6-g]quinoline]
Emax (AR [1]; [8]): 118% | Emax (AR [2]; [9]): < 20%

CCC(=O)O[C@H]1CC[C@H]2[C@@H]3CCC4=CC(=O)CC[C@]4(C)[C@H]3CC[C@]12C [TP, Testosterone Propionate]
%SV growth (AR [3]; [10]): 165.1% | %VP growth (AR [3]; [10]): 146.5% | VP (wet wt) (AR [3]; 0.01 mg TP once daily for 3 days, castrated immature rats, ventral prostate (organ weights standardized as mg per 100 g body weight)): 15.4±0.6 | SV (wet wt) (AR [3]; [10]): 12.3±0.8 | %SV growth (AR [3]; [11]): 369.5% | %VP growth (AR [3]; [11]): 224.1% | SV (wet wt) (AR [3]; [11]): 27.5±0.8 | VP (wet wt) (AR [3]; 0.03 mg TP once daily for 3 days, ventral prostate): 23.5±1.3 | SV (wet wt) (AR [3]; 0.1 mg TP once daily for 3 days (Table 8)): 42.0±2.0 | VP (wet wt) (AR [3]; 0.1 mg TP once daily for 3 days (Table 8), ventral prostate): 35.3±2.1 | %SV growth (AR [3]; [12]): 563.8% | %VP growth (AR [3]; [12]): 337.0% | %SV growth (AR [3]; [13]): 616.1% | %VP growth (AR [3]; [13]): 415.9% | SV (wet wt) (AR [3]; [13]): 45.9±1.9 | VP (wet wt) (AR [3]; 0.3 mg TP once daily for 3 days, ventral prostate): 43.6±1.1 | %SV growth (AR [3]; 1 mg TP once daily for 3 days): 684.6% | %VP growth (AR [3]; 1 mg TP once daily for 3 days): 427.4% | SV (wet wt) (AR [3]; 1 mg TP once daily for 3 days): 51.0±5.4 | VP (wet wt) (AR [3]; 1 mg TP once daily for 3 days, ventral prostate): 44.8±3.7 | SV wt (% of TP (0.1) control) (AR [3]; TP (0.1) alone (Table 9)): 100% | VP wt (% of TP (0.1) control) (AR [3]; TP (0.1) alone (Table 9)): 100% | SV (wet wt) (AR [3]; TP (0.1) alone (Table 9), 3 days): 33.6±4.0 | VP (wet wt) (AR [3]; TP (0.1) alone (Table 9), 3 days, ventral prostate): 25.5±1.2 | EC50 (increase in organ wet weights) (AR [3]; immature castrated rats, dosing for 3 days, VP and SV): ~0.03 mg

CC1=CC(C)(C)Nc2cc3oc(=O)cc(C(F)(F)C(F)(F)F)c3cc21 [Compound 256, 1,2-Dihydro-2,2,4-trimethyl-6-(1,1,2,2,2-pentafluoroethyl)-8-pyranono[5,6-g]quinoline]
Emax (AR [1]; [8]): < 20% | Emax (AR [2]; [9]): 91%

CC1=CC(C)(C)Nc2cc3c(cc21)c(C(F)(F)F)cc(=O)n3C [Compound 261, 1,2-Dihydro-2,2,4,9-tetramethyl-6-trifluoromethyl-8-pyridono[5,6-g]quinoline]
effect on testosterone-mediated increases in the weights of VP and SV (AR [3]; administered simultaneously with 0.1 mg of TP): exhibited AR antagonist activity by suppressing the testosterone-mediated increases in the weights of the VP and SV

COc1cccc(C2Oc3ccccc3-c3ccc4c(c32)C(C)=CC(C)(C)N4)c1 (racemic) [Compound 194, (R/S)-1,2-Dihydro-5-(3-methoxyphenyl)-2,2,4-trimethyl-5H-chromeno[3,4-f]quinoline]
IC50 (ER): 390 nM | ER Antagonist CV-1 Cells Efficacy (%) (ER): 94%

O=c1cc(C(F)(F)F)c2cc3c(cc2[nH]1)NCC3 [Compound 419, 5-Trifluoromethyl-7-pyridono[5,6-e]indoline]
AR Agonist CV-1 Cells Efficacy (%) (AR [1]; [6]): 29% | AR Antagonist CV-1 Cells Efficacy (%) (AR [2]; [7]): 74%

CC1C(=O)C(C)(C)Nc2cc3[nH]c(=O)cc(C(F)(F)F)c3cc21 (racemic) [Compound 418, (R/S)-1,2,3,4-tetrahydro-6-trifluoromethyl-2,2,4-trimethyl-8-pyridono[5,6-f]-3-quinolinone]
Emax (AR [1]; [8]): < 20% | Emax (AR [2]; [9]): 63%

CC1=CC(C)(C)Nc2cc3oc(=O)cc(C(F)(F)F)c3cc21 [Compound 238, 1,2-Dihydro-2,2,4-trimethyl-6-trifluoromethyl-8-pyranono[5,6-g]quinoline]
Emax (AR [1]; [8]): 96% | Emax (AR [2]; [9]): < 20%

CC1CC(C)(C)Nc2cc3oc(=O)cc(-c4ccoc4)c3cc21 (racemic) [Compound 405, (R/S)-5-(3-Furyl)-1,2,3,4-tetrahydro-2,2,4-trimethyl-8-pyranono[5,6-g]quinoline]
Emax (AR [1]; [8]): < 20% | Emax (AR [2]; [9]): 89%

CC1=CC(C)(C)Nc2ccc3c(c21)C(c1cccc(F)c1)Oc1ccccc1-3 (racemic) [Compound 191, (R/S)-5-(3-Fluorophenyl)-1,2-dihydro-2,2,4-trimethyl-5H-chromeno[3,4-f]quinoline]
Emax (human PR-B [4]; CV-1, read-out: PR Agonist CV-1 Cells Efficacy (%)): 26% | Emax (human PR-B [5]; CV-1, read-out: PR Antagonist CV-1 Cells Efficacy (%)): 74% | IC50 (AR [2]): 520 nM | IC50 (ER): 330 nM | ER Antagonist CV-1 Cells Efficacy (%) (ER): 93%

CC1=CC(C)(C)N(C)c2cc3oc(=O)cc(C(F)(F)F)c3cc21 [Compound 265, 1,2-Dihydro-1,2,2,4-tetramethyl-6-trifluoromethyl-8-pyranono[5,6-g]quinoline]
Emax (AR [1]; [8]): < 20% | Emax (AR [2]; [9]): 78%

CC1CC(C)(C)Nc2cc3[nH]c(=O)cc(C(F)(F)F)c3cc21 (racemic) [Compound 260, 1,2,3,4-Tetrahydro-2,2,4-trimethyl-6-trifluoromethyl-8-pyridono[5,6-g]quinoline]
EC50 (human PR-B [4]): > 10000 nM | IC50 (human PR-B [5]): 230 nM | AR Antagonist CV-1 Cells Efficacy (%) (AR [2]; [7]): 53%
